In PMC7691349, “Roles of two glutathione S-transferases in the final step of the β-aryl ether cleavage pathway in Sphingobium sp. strain SYK-6” (Scientific Reports, 2020):

Experiments:
LigE = target: T1, LigE (Sphingobium sp. SYK-6, UniProt P27457); assay: chiral HPLC of MPHPV conversion; type: biochemical; conditions: 400 µM racemic MPHPV; 5 mM GSH; 50 mM Tris-HCl pH 7.5; 30 °C; 60 min
T1 construct: full length in pET-16b (pET08660), His-tagged, E. coli BL21(DE3), His SpinTrap purified
T1 sequence (P27457 1-281 limits assumed): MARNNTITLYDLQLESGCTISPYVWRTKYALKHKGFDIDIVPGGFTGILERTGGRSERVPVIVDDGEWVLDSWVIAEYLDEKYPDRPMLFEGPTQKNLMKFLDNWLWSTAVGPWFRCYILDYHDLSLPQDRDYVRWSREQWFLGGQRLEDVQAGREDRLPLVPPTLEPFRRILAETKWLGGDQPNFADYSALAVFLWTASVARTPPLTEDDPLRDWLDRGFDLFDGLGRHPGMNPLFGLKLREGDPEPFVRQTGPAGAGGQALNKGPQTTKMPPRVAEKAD

LigF = target: T2, LigF (Sphingobium sp. SYK-6, UniProt P30347); assay: chiral HPLC of MPHPV conversion; type: biochemical; conditions: 400 µM racemic MPHPV; 5 mM GSH; 50 mM Tris-HCl pH 7.5; 30 °C; 60 min
T2 construct: full length in pET-16b (pET08650), His-tagged, E. coli BL21(DE3), His SpinTrap purified
T2 sequence (P30347 1-257): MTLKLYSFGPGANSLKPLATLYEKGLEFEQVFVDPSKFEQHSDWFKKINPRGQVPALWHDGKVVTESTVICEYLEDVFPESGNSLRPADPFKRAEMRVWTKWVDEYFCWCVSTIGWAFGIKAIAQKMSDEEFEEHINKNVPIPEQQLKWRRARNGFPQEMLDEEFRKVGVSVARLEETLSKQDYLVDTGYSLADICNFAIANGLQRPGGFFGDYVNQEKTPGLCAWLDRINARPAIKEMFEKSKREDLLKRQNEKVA

`COc1cc(C(=O)[C@@H](CO)Oc2ccccc2OC)ccc1O` [(βR)-MPHPV] was tested, and the “chiral HPLC of MPHPV conversion” value (LigE) was “LigF and LigE completely converted (βS)-MPHPV and (βR)-MPHPV, respectively”.
For `COc1cc(C(=O)[C@H](CO)Oc2ccccc2OC)ccc1O` [(βS)-MPHPV], the “chiral HPLC of MPHPV conversion” value (LigF) was “LigF and LigE completely converted (βS)-MPHPV and (βR)-MPHPV, respectively”.
